# Data: ChEMBL document CHEMBL1136496, “Synthesis and evaluation of optically pure dioxolanes as inhibitors of hepatitis C virus RNA replication” (Bioorg Med Chem Lett, 2003)
# System: Nucleic Acid
# Assay: Concentration required to inhibit HCV RNA replication was determined
# Format: functional, Hepacivirus hominis
row,EC50 [µM],Compound
1,> 50,C[C@H]1O[C@@H](CO)O[C@H]1n1ccc2c(N)ncnc21
2,> 50,Nc1ncnc2c1ccn2[C@H]1CO[C@@H](CO)O1
3,> 50,C[C@H]1O[C@@H](CO)O[C@@H]1n1ccc2c(N)ncnc21
4,> 50,C[C@H]1O[C@@H](CO)O[C@H]1n1ccc2c(O)nc(N)nc21
5,> 50,Nc1nc(O)c2ccn([C@H]3CO[C@@H](CO)O3)c2n1
6,> 50,Nc1ncnc2c1ccn2[C@@H]1CO[C@@H](CO)O1
